Target: Human immunodeficiency virus type 1 protease (Human immunodeficiency virus 1, UniProt Q72874)
Assay: Inhibitory activity was measured against wild-type HIV-1 protease

Structure (SMILES) | Ki [pM]
CN(Cc1ccccn1)C(=O)[C@H]1[C@H](C(=O)N[C@@H](Cc2ccccc2)[C@@H](O)[C@H](O)[C@H](Cc2ccccc2)NC(=O)[C@H]2[C@H](C(=O)N(C)Cc3ccccn3)C2(C)C)C1(C)C | 80000
CC1(C)[C@@H](C(=O)NCc2ccccc2)[C@@H]1C(=O)N[C@@H](Cc1ccccc1)[C@@H](O)[C@H](O)[C@H](Cc1ccccc1)NC(=O)[C@H]1[C@H](C(=O)NCc2ccccc2)C1(C)C | 310
CC(C)[C@H](NC(=O)N(C)Cc1ccccn1)C(=O)N[C@@H](Cc1ccccc1)[C@@H](O)[C@H](O)[C@H](Cc1ccccc1)NC(=O)[C@@H](NC(=O)N(C)Cc1ccccn1)C(C)C | 110
C[C@H]1[C@@H](C(=O)NCc2ccccc2)[C@@H]1C(=O)N[C@@H](Cc1ccccc1)[C@@H](O)[C@H](O)[C@H](Cc1ccccc1)NC(=O)[C@@H]1[C@@H](C)[C@H]1C(=O)NCc1ccccc1 | 160
C[C@@H]1[C@@H](C(=O)NCc2ccccc2)[C@@H]1C(=O)N[C@@H](Cc1ccccc1)[C@@H](O)[C@H](O)[C@H](Cc1ccccc1)NC(=O)[C@@H]1[C@H](C)[C@H]1C(=O)NCc1ccccc1 | 470
